For the assay, the target named is T1, human wild-type (WT)-pendrin (Homo sapiens, UniProt O43511).
T1 construct: expressed in transfected cells
T1 sequence (O43511 1-780): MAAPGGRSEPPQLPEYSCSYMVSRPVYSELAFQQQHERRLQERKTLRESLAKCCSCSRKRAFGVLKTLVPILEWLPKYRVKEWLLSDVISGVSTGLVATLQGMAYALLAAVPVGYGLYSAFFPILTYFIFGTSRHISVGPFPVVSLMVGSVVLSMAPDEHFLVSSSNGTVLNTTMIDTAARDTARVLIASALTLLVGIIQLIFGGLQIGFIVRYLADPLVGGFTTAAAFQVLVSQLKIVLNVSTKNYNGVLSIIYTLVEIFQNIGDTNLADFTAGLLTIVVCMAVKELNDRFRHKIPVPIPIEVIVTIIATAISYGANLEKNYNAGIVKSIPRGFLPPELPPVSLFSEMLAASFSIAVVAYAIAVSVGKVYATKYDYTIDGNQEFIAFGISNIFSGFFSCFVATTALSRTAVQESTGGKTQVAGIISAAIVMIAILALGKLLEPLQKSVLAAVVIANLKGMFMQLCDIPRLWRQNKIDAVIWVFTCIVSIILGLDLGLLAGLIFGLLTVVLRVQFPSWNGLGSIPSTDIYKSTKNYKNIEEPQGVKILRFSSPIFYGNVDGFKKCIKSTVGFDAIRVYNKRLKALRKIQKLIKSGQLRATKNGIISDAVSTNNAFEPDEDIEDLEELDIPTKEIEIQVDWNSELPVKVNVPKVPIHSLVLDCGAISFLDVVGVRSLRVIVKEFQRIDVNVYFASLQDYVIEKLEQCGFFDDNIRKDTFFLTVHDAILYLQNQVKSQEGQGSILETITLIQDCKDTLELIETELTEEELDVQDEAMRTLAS
Nature of the assay: Pendrin Cl−/I− exchange inhibitory activity, YFP fluorescence in CHO-K1 cells. Type of assay: cell-based. Conditions: CHO-K1; for inhibition at 1 µM: compound concentration 1 μM; for inhibition at 3 µM: compound concentration 3 μM; for inhibition at 10 µM: compound concentration 10 μM; for inhibition at 30 µM: compound concentration 30 μM; for inhibition at 100 µM: compound concentration 100 μM. On the procedure: Chinese hamster ovary (CHO)-K1 cells were cultured in DMEM medium containing 10% fetal bovine serum (FBS), 100 units/ml of penicillin and 100 μg/ml streptomycin. CHO-K1 cells were stably transfected with pcDNA3.1 encoding the halide sensor YFP-H148Q/I152L/F46L and human wild-type (WT)-pendrin.
(§1) CHO-K1 cells expressing human WT pendrin and YFP-F46L/H148Q/I152L were plated in 96-well microplates at a density of 2×10^4 cells per well, and cultured for 48 hours. Each well of the cell cultured 96-well plate was washed 2 times with 200 μL of PBS, and filled with 50 μL of HEPES buffered solution (140 mM NaCl, 5 mM KCl, 1 mM MgCl2, 1 mM CaCl2), 10 mM glucose and 10 mM HEPES (pH 7.4)). Test compounds (1 μL) were added to a final concentration of 1, 3, 10, 30 and 100 μM. After culturing at 37° C. for 10 minutes, the 96-well plate was located on the FLUOstar Omega Microplate Reader (BMG Labtech, Ortenberg, Germany) for a fluorescence assay. Fluorescence was recorded continuously (400 ms per point) for 1 second (baseline), whereby each well was assayed individually for pendrin-mediated I-influx. Then 50 μL of Na-substituted HEPES buffered solution (replacing NaCl with NaI) was added using a liquid injector at 1 second, and YFP fluorescence was recorded for 5 seconds. The initial iodide influx rate was determined from the initial slope of fluorescence by nonlinear regression, after the injection of iodide.
as §1, with “Chinese hamster ovary (CHO)-K1 cells were cultured in DMEM medium containing 10% fetal bovine serum (FBS), 100 units/ml of penicillin and 100 μg/ml streptomycin. CHO-K1 cells were stably transfected with pcDNA3.1 encoding the halide sensor YFP-H148Q/I152L/F46L and human wild-type (WT)-pendrin. 3-2: Assay of Cl^−/I^− exchange activity CHO-K1” for “CHO-K1”, “50” for “1, 3, 10, 30 and 100”, “Then,” for “Then”, “NaI-substituted” for “Na-substituted”

These results are taken from patent US20240287042A1, “NOVEL COMPOUND HAVING INHIBITORY ACTIVITY AGAINST PENDRIN, AND PHARMACEUTICAL USES THEREOF” (UIF (University Industry Foundation), Yonsei University, priority 2021, published 2024).

As for `CC(C)(C)c1ccc(N2CCN(C(=O)Cc3c(C(=O)O)[nH]c4ccc(Cl)cc34)CC2)cc1` [YPI-A4943, 3-(2-(4-(4-(Tert-butyl)phenyl)piperazin-1-yl)-2-oxoethyl)-5-chloro-1H-indole-2-carboxylic acid], the inhibition – broadly, the change of the read-out against control, counted positive when it falls – at 1 µM is < 20%; the inhibition at 3 µM amounted to 34.1%; at 10 µM the inhibition was 70.8%; at 30 µM the inhibition was 81.9%. Further, testing at 100 µM gave an inhibition of 91.5%.
In the same order, the values of `CCOc1ccccc1N1CCN(C(=O)Cc2c(C(=O)O)[nH]c3ccc(Cl)cc23)CC1` [YPI-A4882, 5-Chloro-3-(2-(4-(2-ethoxyphenyl)piperazin-1-yl)-2-oxoethyl)-1H-indole-2-carboxylic acid] are < 20%, < 20%, < 20%, < 20% and 45.3%.
For `O=C(O)c1[nH]c2ccc(Cl)cc2c1CC(=O)N1CCN(c2cccc(Br)c2)CC1` [YPI-A4845, 3-(2-(4-(3-Bromophenyl)piperazin-1-yl)-2-oxoethyl)-5-chloro-1H-indole-2-carboxylic acid], the inhibition at 1 µM is < 20%, the inhibition at 3 µM is < 20%, the inhibition at 10 µM turned out to be 35.1% and the inhibition at 30 µM worked out at 88.8%.
For the molecule `O=C(O)c1[nH]c2ccc(Cl)cc2c1CC(=O)N1CCN(c2ccccc2Br)CC1` [YPI-A4844, 3-(2-(4-(2-Bromophenyl)piperazin-1-yl)-2-oxoethyl)-5-chloro-1H-indole-2-carboxylic acid], the inhibition at 1 µM is < 20%, the inhibition at 3 µM was < 20%, at 10 µM the inhibition was 59.7% and testing at 30 µM gave an inhibition of 92.5%.
On to `Cc1cccc(Cl)c1N1CCN(C(=O)Cc2c(C(=O)O)[nH]c3ccc(F)cc23)CC1` [YPI-A4963, 3-(2-(4-(2-Chloro-6-methylphenyl)piperazin-1-yl)-2-oxoethyl)-5-fluoro-1H-indole-2-carboxylic acid], for which the inhibition at 1 µM was < 20%, testing at 3 µM gave an inhibition of 52.3%, the inhibition at 10 µM turned out to be 89.6% and the inhibition at 30 µM was determined as 100%.
With `Cc1ccccc1N1CCN(C(=O)Cc2c(C(=O)O)[nH]c3ccc(Cl)cc23)CC1` [YPI-A4847, 5-Chloro-3-(2-oxo-2-(4-(o-tolyl)piperazin-1-yl)ethyl)-1H-indole-2-carboxylic acid], the inhibition at 1 µM was < 20%, the inhibition at 3 µM is < 20%, at 10 µM the inhibition was 60.6% and the inhibition at 30 µM was 91.5%. For the same molecule, the inhibition at 100 µM worked out at 92.4%.
Regarding `C[C@@H]1CN(c2ccccc2)CCN1C(=O)Cc1c(C(=O)O)[nH]c2ccc(Cl)cc12` [YPI-A4914, (R)-5-chloro-3-(2-(2-methyl-4-phenylpiperazin-1-yl)-2-oxoethyl)-1H-indole-2-carboxylic acid], the inhibition at 1 µM was < 20%, the inhibition at 3 µM is < 20%, the inhibition at 10 µM is < 20% and the inhibition at 30 µM was < 20%. Moreover, the inhibition at 100 µM stood at 68.2%.
`O=C(O)c1[nH]c2ccc(Cl)cc2c1CC(=O)N1CCN(c2ccccc2)CC1` [YPI-A4881, 5-Chloro-3-(2-oxo-2-(4-phenylpiperazin-1-yl)ethyl)-1H-indole-2-carboxylic acid]: the inhibition at 1 µM was < 20%, the inhibition at 3 µM is < 20%, the inhibition at 10 µM was < 20% and the inhibition at 30 µM was < 20%. Further, the inhibition at 100 µM turned out to be 40.2%.
For `COc1cccc(N2CCN(C(=O)Cc3c(C(=O)O)[nH]c4ccc(Cl)cc34)CC2)c1` [YPI-A4877, 5-Chloro-3-(2-(4-(3-methoxyphenyl)piperazin-1-yl)-2-oxoethyl)-1H-indole-2-carboxylic acid], the inhibition at 1 µM is < 20%, the inhibition at 3 µM was < 20%, the inhibition at 10 µM was < 20% and the inhibition at 30 µM is < 20%. The molecule further registered an inhibition at 100 µM of 67.5%.
